Test results published in patent US20240016831A1 (priority 2020, published 2024).

Assays:
[1] = test system: SARS-CoV-2 clinical isolate; assay type: cell-based
[2] = assay type: physicochemical

CCN(CC)CCCC(C)Nc1ccnc2cc(Cl)ccc12 (stereo not drawn) [chloroquine, Chloroquine Phosphate, reference compound]
SARS-CoV-2 virus titre [1]: limit of detection (LOD)

O=C(O)CC(O)(CC(=O)O)C(=O)O [citric acid pH 5.8, citric acid]
cytotoxicity on the LDH assay (Vero E6 cells): low cytotoxicity | in vitro antiviral action against SARS-CoV-2 [1]: high in vitro antiviral action

OC[C@@H](O)[C@@H](O)[C@H](O)[C@H](O)CO [mannitol, D-mannitol]
cumulative levels of NO ([2]; pH 5.8): 1400 nmol NO per mg nitrite | difference in cumulative NO with and without mannitol ([2]; pH 6.2): differences have disappeared

OC[C@@H](O)[C@H](O)[C@@H](O)CO [xylitol]
cumulative nitric oxide evolution ([2]; after 3000 s): about 20000 nmol per mg nitrite
